Laboratory results: patent US12318365B2, “Inhibition of dipeptide repeat proteins” (ALS Therapy Development Institute, priority 2019, dated 2025)

Tested on: asymmetrical arginine methylation of NSC-34 cells
Experiment: Cellular asymmetric arginine methylation (800/700 fluorescence readout) in NSC-34 cells
Format: cell-based, Mouse
Method: On Day 0, NSC-34 Cells were plated in 48 wells of a 96 well plate, and CHO cells were plated in the other 48 wells of the same 96-well plate. NSC-34 cells were plated in DMEM/High glucose media. CHO cells were plated in Ham's F-12K (Kaighn's) Medium. Both cell lines were incubated overnight to reach approximately 50% confluency.
On Day 1, 24 wells of the NSC-34 cells and 24 wells of the CHO cells were treated with the following concentrations of MS023: 1 μM, 3 μM, 6 μM, 10 μM, 30 μM, and 60 μM. The cells were then incubated overnight.
On Day 2, 18 wells of the untreated NSC-34 cells and 18 wells of the untreated CHO cells were treated with the same concentrations of MS023 as those on Day 1. This left 6 wells of each cell line that never received MS023. Once MS023 was added, the cells were incubated overnight.
On Day 3, all media in the 96-well plate was removed and the cells were fixed with 3.7% Paraformaldehyde (PFA). Cells were then washed and permeabilized with 1×PBS/0.1% Triton X-100.
After removing the PBS/Triton wash, Odyssey Blocking Buffer (LI-COR, 927-40100) was applied to all wells and the plate sat at room temperature with moderate shaking for 90 minutes. After 90 minutes, the blocking buffer was removed and the cells were treated with a 1:500 dilution of the Anti-Asymmetric Di-Methyl Arginine Motif primary antibody (Cell Signaling Technology, #13522). Incubation with the primary antibody continued overnight at 4 degrees Celsius with no shaking.
On Day 4, the primary antibody solution was removed from the plate, and the cells were washed with 1×PBS/0.1% Tween 20. After washing, cells were given a secondary antibody mixture containing a 1:1000 dilution of IRDye 800 CW Anti-Rabbit antibody (LI-COR, 926-32211) and a 1:500 dilution of Cell Tag 700 Stain (LI-COR, 926-41090). The secondary antibody mixture remained on cells for 60 minutes with gentle shaking and protected from light.
(§1) After 60 minutes, the secondary antibody mixture was removed and the cells were again washed with 1×PBS/0.1% Tween 20. All wash buffer was then removed, and the plate was gently patted dry to remove excess solution. The plate was then read on the LI-COR Odyssey Classic Imaging System which provides results based on fluorescence. In this experiment, fluorescence occurred as a result of cellular, asymmetric arginine methylation. MS023 was given to cells for either 24 or 48 hours, with expectation for it to reduce cellular, asymmetric arginine methylation. Cell number per well was accounted for using the Cell Tag 700 Stain, which fluorescently labels total protein levels in a cell. To this effect, fluorescence from asymmetrical arginine methylation per well (800) was divided by fluorescence from the total protein level per well (700) to produce an outcome of 800/700.
On Day 1, 24 wells of the NSC-34 cells and 24 wells of the CHO cells were treated with the following concentrations of MS049: 0.2 μM, 1 μM, 2 μM, 10 μM, 20 μM, and 100 μM. The cells were then incubated overnight.
On Day 2, 18 wells of the untreated NSC-34 cells and 18 wells of the untreated CHO cells were treated with the same concentrations of MS049 as those on Day 1. This left 6 wells of each cell line that never received MS049. Once MS049 was added, the cells were incubated overnight.
as §1, with “MS049” for “MS023”, “To this effect, fluorescence from asymmetrical arginine methylation per well (800) was divided by fluorescence from the total protein level per well (700) to produce an outcome of 800/700.” left out

CC(C)Oc1ccc(-c2c[nH]cc2CN(C)CCN)cc1 [MS023]
decrease of asymmetrical arginine methylation (24 hour treatment, 1 μM, vs untreated cells): approximately 13%
decrease of asymmetrical arginine methylation (24 hour treatment, 60 μM): ~45%
decrease of asymmetrical arginine methylation (48 hour treatment, 1 μM): ~33%
decrease of asymmetrical arginine methylation (48 hour treatment, 60 μM): ~75%
